From patent publication US8642622B2, “Piperidinyl compound as a modulator of chemokine receptor activity” (Bristol-Myers Squibb Company, priority 2010, dated 2014)

What was measured:
Protein binding, rabbit = format: in vitro ADME
[1] = target: T1, human cardiac L-type Ca channel (α1C) and its β subunit (Homo sapiens, UniProt Q13936); experiment: L-type calcium channel whole-cell patch-clamp assay; format: cell-based; conditions: @ 30 μM, HEK-293, protein-free buffer
T1 construct: expressed in transfected cells
Method: In addition to the potential for interaction with the L-type calcium channel, whole-cell patch-clamp was used to directly measure inward calcium currents in HEK-293 cells stably expressing the cloned human cardiac L-type Ca channel (α1C) and its β subunit. Effects of compounds were calculated by measuring inhibition of peak current. Experiments were carried out using an aqueous buffer at pH 7.4 and at room temperature. There is no protein in the buffer and drug concentrations reported are nominal free drug levels. Data is reported as percent inhibition at a fixed concentration.

Protein binding, human = format: in vitro ADME
hERG potassium channel = target: T2, hERG potassium channel (Homo sapiens, UniProt Q12809); experiment: hERG patch clamp assay; format: cell-based; conditions: HEK-293 cells stably expressing hERG, pH 7.4, HEK-293, protein-free buffer, read-out: hERG channel, % inh
T2 construct: expressed in transfected cells
Method: Whole-cell patch-clamp was used to directly measure hERG tail currents in HEK-293 cells stably expressing the cloned hERG potassium channel α subunit. Effects of compounds were calculated by measuring inhibition of peak tail current. Experiments were carried out using an aqueous buffer with pH 7.4 at room temperature. There was no protein in the assay buffer. The test concentrations reported are nominal free drug levels. Data is reported as percent inhibition at a fixed concentration.

[2] = Single-dose pharmacokinetics in dogs; format: in vivo; conditions: dog
Method: Serial blood samples were collected for all studies at various time points post dose (0.17 (or 0.25 for oral), 0.5, 0.75, 1, 2, 4, 6, 8 and 24 h, for example). Plasma samples were analyzed by LC-MS/MS.

[3] = target: T3, human cardiac sodium channel, SCNSA (Homo sapiens, UniProt Q14524); experiment: Sodium channel whole-cell patch-clamp assay; format: cell-based; conditions: HEK293, HEK-293, protein-free buffer, read-out: Na channel, % inh
T3 construct: expressed in transfected cells; host or cells: HEK-293
Method: Whole-cell patch-clamp was used to directly measure inward sodium currents in HEK-293 cells expressing the human cardiac sodium channel, SCNSA. After reach steady-state effect in the presence of drug, rate-dependence was assessed by stimulation at frequencies of 1 Hz and 4 Hz. Experiments were carried out using an aqueous buffer at pH 7.4 and at room temperature. There is no protein in the buffer and drug concentrations reported are nominal free drug levels. Test article was evaluated up to 10 μM (protein-free buffer). […] Data is reported as percent inhibition at a fixed concentration.

[4] = Single-dose pharmacokinetics in rats; format: in vivo; conditions: male, Sprague-Dawley, rat, plasma; for bioavailability: po
Method: Serial blood samples were collected for all studies from the jugular vein at various time points post dose (0.17 (or 0.25 for oral), 0.5, 0.75, 1, 2, 4, 6, 8 and 24 h, for example). Plasma samples were analyzed by LC-MS/MS.
Additional studies evaluating suspensions of crystalline drug substance in aqueous medium were performed as described above.

[5] = Electrocardiography in anesthetized rabbits (rabbit in vivo EP effect)
Method: A dose-response study of test compound was conducted in anesthetized rabbits to assess the cardiac electrophysiologic profile established in the cellular ion channel assays.
Experiments were performed in propofol-fentanyl anesthetized closed-chest male rabbits. A body surface electrocardiogram (ECG) and an intra-cardiac His-bundle electrogram were continuously monitored and recorded during the studies, using a PoNeMah system and a Prucka electrophysiological recording system, respectively. Test compound was prepared on the day of study in a vehicle of PEG400:ethanol:water (1:1:1) at a dosing concentration of 30 mg/mL. Test compound (n=3) or vehicle (n=3) was given intravenously over 5 minutes via an infusion pump at incremental doses of 3, 10 and 30 mg/kg. The interval between doses was 10 minutes, allowing for a 5-minute test agent infusion and a 5-minute rest period. Blood was sampled at baseline (pre-drug infusion) and immediately at the end of each infusion. For the 30 mg/kg dose, additional blood samples were taken at 10, 20 and 30 minutes after the end of infusion.
PR interval, QRS duration and QT interval were averaged from a 1 minute ECG recording period at time of blood sampling. QT interval was corrected for heart rate effects using both Fridericia (QTcf) and Van der Water (QTcv) formulae. AH and HV intervals, representing A-V node conduction and His-Purkinje conduction, respectively, were assessed by manual measurements from the His-bundle electrogram. Data were expressed as percent change from pre-drug baseline (mean±SEM) for PR, QRS, AH and HV intervals as well as delta change from the pre-drug infusion baseline (mean±SEM) for QTc intervals. Changes of 10% in PR, QRS, and AH intervals, and 20% in HV interval, as well as >10 ms in QTc interval are considered significant based on experience with the model.

T3 sequence (Q14524 whole entry): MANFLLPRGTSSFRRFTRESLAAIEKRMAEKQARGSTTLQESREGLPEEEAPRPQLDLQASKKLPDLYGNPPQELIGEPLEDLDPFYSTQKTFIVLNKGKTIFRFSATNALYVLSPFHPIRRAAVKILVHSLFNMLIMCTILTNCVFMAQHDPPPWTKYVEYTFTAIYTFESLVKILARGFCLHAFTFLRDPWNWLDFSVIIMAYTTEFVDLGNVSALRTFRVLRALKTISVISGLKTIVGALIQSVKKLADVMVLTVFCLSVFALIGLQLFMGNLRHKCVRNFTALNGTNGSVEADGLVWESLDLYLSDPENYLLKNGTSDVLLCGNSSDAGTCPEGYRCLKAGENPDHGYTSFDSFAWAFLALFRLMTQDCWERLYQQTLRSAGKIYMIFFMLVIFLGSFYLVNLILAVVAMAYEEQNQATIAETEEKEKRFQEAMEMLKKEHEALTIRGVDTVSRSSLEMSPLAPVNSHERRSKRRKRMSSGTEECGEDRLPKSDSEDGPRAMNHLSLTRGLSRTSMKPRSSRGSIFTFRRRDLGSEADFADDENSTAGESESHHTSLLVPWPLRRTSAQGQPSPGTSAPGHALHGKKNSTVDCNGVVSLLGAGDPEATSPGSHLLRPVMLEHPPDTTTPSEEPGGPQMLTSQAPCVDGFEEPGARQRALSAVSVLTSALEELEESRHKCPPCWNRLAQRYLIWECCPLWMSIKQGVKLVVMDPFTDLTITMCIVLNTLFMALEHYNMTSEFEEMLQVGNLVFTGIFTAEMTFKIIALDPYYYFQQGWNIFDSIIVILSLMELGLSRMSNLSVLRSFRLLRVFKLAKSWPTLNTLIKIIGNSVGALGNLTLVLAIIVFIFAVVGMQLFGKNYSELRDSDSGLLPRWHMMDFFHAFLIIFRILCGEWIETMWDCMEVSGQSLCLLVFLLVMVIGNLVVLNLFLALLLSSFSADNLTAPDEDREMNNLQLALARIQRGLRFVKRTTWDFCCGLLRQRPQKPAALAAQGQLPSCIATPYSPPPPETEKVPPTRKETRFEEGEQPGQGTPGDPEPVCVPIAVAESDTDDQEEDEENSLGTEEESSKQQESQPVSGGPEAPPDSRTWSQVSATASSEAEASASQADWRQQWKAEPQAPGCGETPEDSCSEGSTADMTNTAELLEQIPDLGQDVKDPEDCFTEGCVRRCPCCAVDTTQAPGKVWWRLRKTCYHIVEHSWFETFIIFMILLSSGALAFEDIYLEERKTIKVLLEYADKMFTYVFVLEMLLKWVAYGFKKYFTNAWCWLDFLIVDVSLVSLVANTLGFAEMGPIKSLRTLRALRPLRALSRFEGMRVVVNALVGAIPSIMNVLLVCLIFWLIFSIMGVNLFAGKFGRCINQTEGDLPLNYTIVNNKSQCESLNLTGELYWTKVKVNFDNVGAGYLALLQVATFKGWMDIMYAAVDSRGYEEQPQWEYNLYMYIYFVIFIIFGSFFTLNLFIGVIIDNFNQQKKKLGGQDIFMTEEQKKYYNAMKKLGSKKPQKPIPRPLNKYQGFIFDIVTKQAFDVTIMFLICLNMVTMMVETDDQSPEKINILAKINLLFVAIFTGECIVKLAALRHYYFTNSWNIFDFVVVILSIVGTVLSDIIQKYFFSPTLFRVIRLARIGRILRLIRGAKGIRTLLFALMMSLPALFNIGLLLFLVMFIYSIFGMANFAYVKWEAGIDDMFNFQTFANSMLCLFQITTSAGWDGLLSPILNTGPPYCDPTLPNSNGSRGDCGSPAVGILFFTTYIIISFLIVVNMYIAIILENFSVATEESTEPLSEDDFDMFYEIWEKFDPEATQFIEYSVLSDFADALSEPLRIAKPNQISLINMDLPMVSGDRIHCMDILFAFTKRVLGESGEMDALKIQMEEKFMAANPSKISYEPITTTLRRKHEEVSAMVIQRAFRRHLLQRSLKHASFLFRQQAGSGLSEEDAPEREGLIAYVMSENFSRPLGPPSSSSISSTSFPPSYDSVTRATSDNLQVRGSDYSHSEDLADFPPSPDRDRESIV
T1 sequence (Q13936 whole entry): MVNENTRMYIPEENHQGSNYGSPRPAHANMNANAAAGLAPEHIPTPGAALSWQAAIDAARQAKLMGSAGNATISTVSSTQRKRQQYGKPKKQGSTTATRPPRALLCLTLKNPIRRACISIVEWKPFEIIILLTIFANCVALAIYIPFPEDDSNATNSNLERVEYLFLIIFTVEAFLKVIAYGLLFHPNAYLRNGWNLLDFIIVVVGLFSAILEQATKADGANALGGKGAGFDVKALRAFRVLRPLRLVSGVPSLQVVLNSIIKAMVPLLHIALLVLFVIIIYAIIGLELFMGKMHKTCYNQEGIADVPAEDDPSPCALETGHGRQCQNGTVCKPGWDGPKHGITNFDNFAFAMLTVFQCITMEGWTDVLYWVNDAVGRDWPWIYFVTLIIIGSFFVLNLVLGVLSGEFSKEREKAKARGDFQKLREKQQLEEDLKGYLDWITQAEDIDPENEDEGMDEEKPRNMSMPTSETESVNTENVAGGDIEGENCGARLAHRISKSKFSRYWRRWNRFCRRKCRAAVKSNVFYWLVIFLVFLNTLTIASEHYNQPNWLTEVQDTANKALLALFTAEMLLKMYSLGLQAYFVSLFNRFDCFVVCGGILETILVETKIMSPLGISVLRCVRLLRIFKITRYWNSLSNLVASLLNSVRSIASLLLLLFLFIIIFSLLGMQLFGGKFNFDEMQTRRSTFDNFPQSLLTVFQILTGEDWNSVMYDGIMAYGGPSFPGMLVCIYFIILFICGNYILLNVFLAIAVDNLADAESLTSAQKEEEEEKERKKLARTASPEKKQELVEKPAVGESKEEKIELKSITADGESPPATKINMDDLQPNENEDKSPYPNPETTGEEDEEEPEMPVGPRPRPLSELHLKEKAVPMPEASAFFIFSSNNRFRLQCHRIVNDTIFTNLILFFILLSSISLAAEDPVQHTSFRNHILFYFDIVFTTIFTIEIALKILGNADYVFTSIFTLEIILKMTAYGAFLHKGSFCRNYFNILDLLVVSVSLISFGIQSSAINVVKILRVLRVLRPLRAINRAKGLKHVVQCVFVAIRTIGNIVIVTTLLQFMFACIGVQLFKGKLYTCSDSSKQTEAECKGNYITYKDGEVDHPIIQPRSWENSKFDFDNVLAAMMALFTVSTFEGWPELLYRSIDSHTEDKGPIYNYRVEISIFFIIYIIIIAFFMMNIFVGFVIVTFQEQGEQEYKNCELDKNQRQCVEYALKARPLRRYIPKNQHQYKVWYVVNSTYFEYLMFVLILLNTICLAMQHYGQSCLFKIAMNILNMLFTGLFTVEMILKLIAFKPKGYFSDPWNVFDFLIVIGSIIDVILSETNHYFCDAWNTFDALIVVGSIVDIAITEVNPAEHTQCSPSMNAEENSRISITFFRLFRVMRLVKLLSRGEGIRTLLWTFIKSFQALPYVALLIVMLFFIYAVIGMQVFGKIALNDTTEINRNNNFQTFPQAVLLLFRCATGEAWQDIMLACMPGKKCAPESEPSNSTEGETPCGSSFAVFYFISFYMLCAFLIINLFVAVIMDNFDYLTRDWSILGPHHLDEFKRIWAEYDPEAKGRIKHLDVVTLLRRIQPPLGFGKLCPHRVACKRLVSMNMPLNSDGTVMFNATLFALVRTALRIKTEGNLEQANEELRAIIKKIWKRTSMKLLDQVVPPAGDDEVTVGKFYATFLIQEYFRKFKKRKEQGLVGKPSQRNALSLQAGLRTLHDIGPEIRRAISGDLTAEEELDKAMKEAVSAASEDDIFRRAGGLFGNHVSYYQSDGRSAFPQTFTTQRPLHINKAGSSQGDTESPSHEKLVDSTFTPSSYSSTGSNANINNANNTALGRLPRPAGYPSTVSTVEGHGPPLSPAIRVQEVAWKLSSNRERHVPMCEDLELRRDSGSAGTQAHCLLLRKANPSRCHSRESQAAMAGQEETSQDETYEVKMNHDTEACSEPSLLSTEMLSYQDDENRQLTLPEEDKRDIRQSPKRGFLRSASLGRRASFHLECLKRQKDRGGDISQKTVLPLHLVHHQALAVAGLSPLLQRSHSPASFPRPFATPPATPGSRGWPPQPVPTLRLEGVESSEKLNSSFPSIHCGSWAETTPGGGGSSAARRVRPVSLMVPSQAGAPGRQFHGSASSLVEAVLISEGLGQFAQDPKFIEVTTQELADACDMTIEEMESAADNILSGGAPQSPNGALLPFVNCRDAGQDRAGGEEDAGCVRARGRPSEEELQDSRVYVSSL
T1 sequence (Q08289 whole entry partner): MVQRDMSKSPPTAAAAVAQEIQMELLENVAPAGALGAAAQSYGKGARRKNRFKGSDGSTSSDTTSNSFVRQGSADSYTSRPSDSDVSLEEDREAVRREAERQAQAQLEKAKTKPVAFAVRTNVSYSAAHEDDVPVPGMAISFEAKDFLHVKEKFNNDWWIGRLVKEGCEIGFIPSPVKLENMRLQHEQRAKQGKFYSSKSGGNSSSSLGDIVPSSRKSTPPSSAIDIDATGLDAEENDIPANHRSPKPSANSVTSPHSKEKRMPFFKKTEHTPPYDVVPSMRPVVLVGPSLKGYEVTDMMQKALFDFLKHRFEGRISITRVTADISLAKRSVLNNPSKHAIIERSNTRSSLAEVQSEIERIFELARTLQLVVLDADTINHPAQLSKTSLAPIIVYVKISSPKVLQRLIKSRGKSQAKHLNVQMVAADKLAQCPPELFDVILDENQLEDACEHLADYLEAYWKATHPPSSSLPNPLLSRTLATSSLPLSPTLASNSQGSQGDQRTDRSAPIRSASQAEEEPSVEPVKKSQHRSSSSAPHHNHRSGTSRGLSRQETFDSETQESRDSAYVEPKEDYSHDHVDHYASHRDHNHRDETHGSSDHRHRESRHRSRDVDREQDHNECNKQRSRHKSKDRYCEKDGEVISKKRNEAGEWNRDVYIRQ

## CC(C)[C@@H](NC(=O)[C@@H]1CCC(F)(F)C1)C(=O)N1CC[C@](O)(c2ccc(Cl)cc2)[C@@](C)(O)C1 [Compound I, (R)—N—((R)-1-((3S,4S)-4-(4-chlorophenyl)-3,4-dihydroxy-3-methylpiperidin-1-yl)-3-methyl-1-oxobutan-2-yl)-3,3-difluorocyclopentanecarboxamide]
Protein binding, rabbit
  fraction unbound: 0.46
[1]
  Ca channel, % inh: 29% @ 30 μM
Protein binding, human
  fraction unbound: 0.32
hERG potassium channel
  inhibition at 30 µM: 22%
[2]
  decrease of in vivo clearance (CL) relative to the compared compounds: 8-13 fold
[2]; male, beagle, plasma, intravenous
  clearance: 0.6 mL/min/kg
[2]; male, beagle, plasma, oral solution, read-out: dog oral bioavailability when dosed as solution
  bioavailability: 82%
[3]
  inhibition at 10 µM: 21%
[4]; intravenous
  clearance: 26 mL/min/kg
[4]; crystalline suspension in aqueous medium, read-out: Relative bioavailability when dosed as a crystalline suspension
  bioavailability: 84%
[4]; oral solution, read-out: Rat oral bioavailability when dosed as solution
  bioavailability: 43%
[5]; at NOEL dose, free drug
  Cmax: Free drug (at NOEL dose): 52 µM
[5]; at QT effect dose, free drug
  Cmax: Free drug (at QT effect dose): 52 µM
[5]; i.v. infusion
  NOEL dose: 30 mg/kg
[5]; i.v. infusion 3, 10, 30 mg/kg
  QT effect Dose: > 30 mg/kg
[5]; i.v. infusion, change from pre-drug baseline
  QTcf, delta: No effect
[5]; male, blood, iv, at QT effect dose, total drug
  Cmax: 96 µM
